#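 Five compound concentrations were applied to cells in 96-well plates for 48 hours; endpoints were derived by simple linear interpolation of the resulting dose-response curve. Abbreviation: GI50, concentration required for 50% inhibition of growth. TGI: total growth inhibition.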
# Experiments:
# Assay in all cases: NCI tumour cell line growth inhibition, 48 h
# SW-620 colon = system: SW-620 colon
# PC-3 prostate = system: PC-3 prostate
# NCI/ADR-RES ovarian = system: NCI/ADR-RES ovarian
# OVCAR-5 ovarian = system: OVCAR-5 ovarian
# OVCAR-4 ovarian = system: OVCAR-4 ovarian
# NCI-H226 lung = system: NCI-H226 lung
# NCI-H23 lung = system: NCI-H23 lung
# SNB-19 CNS = system: SNB-19 CNS
# SK-OV-3 ovarian = system: SK-OV-3 ovarian
# OVCAR-8 ovarian = system: OVCAR-8 ovarian
# SF-268 CNS = system: SF-268 CNS
# K-562 leukemia = system: K-562 leukemia
# SK-MEL-28 melanoma = system: SK-MEL-28 melanoma
# MALME-3M melanoma = system: MALME-3M melanoma
# CCRF-CEM leukemia = system: CCRF-CEM leukemia
# HCC-2998 colon = system: HCC-2998 colon
# NCI-H460 lung = system: NCI-H460 lung
# MOLT-4 leukemia = system: MOLT-4 leukemia
# TK-10 renal = system: TK-10 renal
# M14 melanoma = system: M14 melanoma
# COLO 205 colon = system: COLO 205 colon
# LOX IMVI melanoma = system: LOX IMVI melanoma
# SN12C renal = system: SN12C renal
# T-47D breast = system: T-47D breast
# RPMI-8226 leukemia = system: RPMI-8226 leukemia
# ACHN renal = system: ACHN renal
# MCF7 breast = system: MCF7 breast
# BT-549 breast = system: BT-549 breast
# CAKI-1 renal = system: CAKI-1 renal
# HCT-116 colon = system: HCT-116 colon
# KM12 colon = system: KM12 colon
# A498 renal = system: A498 renal
# SNB-75 CNS = system: SNB-75 CNS
# DU-145 prostate = system: DU-145 prostate
# U251 CNS = system: U251 CNS
# SF-295 CNS = system: SF-295 CNS
# EKVX NSCLC = system: EKVX NSCLC
# HCT-15 colon = system: HCT-15 colon
# HL-60(TB) leukemia = system: HL-60(TB) leukemia
# 786-0 renal = system: 786-0 renal
# SK-MEL-5 melanoma = system: SK-MEL-5 melanoma
# SR leukemia = system: SR leukemia
# A549 NSCLC = system: A549 NSCLC
# HOP-92 NSCLC = system: HOP-92 NSCLC
# HS 578T breast = system: HS 578T breast
# HT29 colon = system: HT29 colon
# UACC-62 melanoma = system: UACC-62 melanoma
# SF-539 CNS = system: SF-539 CNS
# MDA-MB-231 breast = system: MDA-MB-231 breast
# HOP-62 NSCLC = system: HOP-62 NSCLC
# MDA-MB-435 = system: MDA-MB-435
# UACC-257 melanoma = system: UACC-257 melanoma
# OVCAR-3 ovarian = system: OVCAR-3 ovarian
# SK-MEL-2 melanoma = system: SK-MEL-2 melanoma
# RXF 393 renal = system: RXF 393 renal
# UO-31 renal = system: UO-31 renal
# IGROV1 ovarian = system: IGROV1 ovarian
smiles,measurement,setting,value
O=C(COc1cccc(/C=C2/Oc3ccccc3C2=O)c1)Nc1nccs1,GI50,SW-620 colon,27.4 µM
same,TGI,SW-620 colon,> 100 µM
same,GI50,PC-3 prostate,15.7 µM
same,TGI,PC-3 prostate,58.1 µM
same,GI50,NCI/ADR-RES ovarian,30 µM
same,TGI,NCI/ADR-RES ovarian,> 100 µM
same,GI50,OVCAR-5 ovarian,44 µM
same,TGI,OVCAR-5 ovarian,> 100 µM
same,GI50,OVCAR-4 ovarian,19.5 µM
same,TGI,OVCAR-4 ovarian,61.8 µM
same,GI50,NCI-H226 lung,22.9 µM
same,TGI,NCI-H226 lung,67.9 µM
same,GI50,NCI-H23 lung,24.8 µM
same,TGI,NCI-H23 lung,> 100 µM
same,GI50,SNB-19 CNS,25.4 µM
same,TGI,SNB-19 CNS,> 100 µM
same,GI50,SK-OV-3 ovarian,48.6 µM
same,TGI,SK-OV-3 ovarian,> 100 µM
same,GI50,OVCAR-8 ovarian,16.5 µM
same,TGI,OVCAR-8 ovarian,50.1 µM
same,GI50,SF-268 CNS,6.23 µM
same,TGI,SF-268 CNS,26.6 µM
same,GI50,K-562 leukemia,16.4 µM
same,TGI,K-562 leukemia,53.7 µM
same,GI50,SK-MEL-28 melanoma,28.9 µM
same,TGI,SK-MEL-28 melanoma,> 100 µM
same,GI50,MALME-3M melanoma,21.2 µM
same,TGI,MALME-3M melanoma,50.9 µM
same,GI50,CCRF-CEM leukemia,1.89 µM
same,TGI,CCRF-CEM leukemia,3.73 µM
same,GI50,HCC-2998 colon,29 µM
same,TGI,HCC-2998 colon,68.9 µM
same,GI50,NCI-H460 lung,31.6 µM
same,TGI,NCI-H460 lung,> 100 µM
same,GI50,MOLT-4 leukemia,13 µM
same,TGI,MOLT-4 leukemia,31.4 µM
same,GI50,TK-10 renal,15.9 µM
same,TGI,TK-10 renal,68.7 µM
same,GI50,M14 melanoma,30.5 µM
same,TGI,M14 melanoma,> 100 µM
same,GI50,COLO 205 colon,24.4 µM
same,TGI,COLO 205 colon,97.9 µM
same,GI50,LOX IMVI melanoma,2.78 µM
same,TGI,LOX IMVI melanoma,10.2 µM
same,GI50,SN12C renal,22.4 µM
same,TGI,SN12C renal,> 100 µM
same,GI50,T-47D breast,16.8 µM
same,TGI,T-47D breast,58.5 µM
same,GI50,RPMI-8226 leukemia,4.28 µM
same,TGI,RPMI-8226 leukemia,23.1 µM
same,GI50,ACHN renal,27.4 µM
same,TGI,ACHN renal,> 100 µM
same,GI50,MCF7 breast,14.8 µM
same,TGI,MCF7 breast,> 100 µM
same,GI50,BT-549 breast,14.9 µM
same,TGI,BT-549 breast,43.7 µM
same,GI50,CAKI-1 renal,15.9 µM
same,TGI,CAKI-1 renal,34.4 µM
same,GI50,HCT-116 colon,22.8 µM
same,TGI,HCT-116 colon,> 100 µM
same,GI50,KM12 colon,10.5 µM
same,TGI,KM12 colon,32.9 µM
same,GI50,A498 renal,20.8 µM
same,TGI,A498 renal,85.4 µM
same,GI50,SNB-75 CNS,17.1 µM
same,TGI,SNB-75 CNS,58.1 µM
same,GI50,DU-145 prostate,27.8 µM
same,TGI,DU-145 prostate,> 100 µM
same,GI50,U251 CNS,20.8 µM
same,TGI,U251 CNS,> 100 µM
same,GI50,SF-295 CNS,36.4 µM
same,TGI,SF-295 CNS,> 100 µM
same,GI50,EKVX NSCLC,31.9 µM
same,TGI,EKVX NSCLC,> 100 µM
same,GI50,HCT-15 colon,28.3 µM
same,TGI,HCT-15 colon,> 100 µM
same,GI50,HL-60(TB) leukemia,2.86 µM
same,TGI,HL-60(TB) leukemia,8.58 µM
same,GI50,786-0 renal,3.3 µM
same,TGI,786-0 renal,14.4 µM
same,GI50,SK-MEL-5 melanoma,16.4 µM
same,TGI,SK-MEL-5 melanoma,35.2 µM
same,GI50,SR leukemia,4.09 µM
same,TGI,SR leukemia,15.9 µM
same,GI50,A549 NSCLC,23.6 µM
same,TGI,A549 NSCLC,> 100 µM
same,GI50,HOP-92 NSCLC,10.1 µM
same,TGI,HOP-92 NSCLC,30.2 µM
same,GI50,HS 578T breast,24.4 µM
same,TGI,HS 578T breast,> 100 µM
same,GI50,HT29 colon,32.7 µM
same,TGI,HT29 colon,> 100 µM
same,GI50,UACC-62 melanoma,25.6 µM
same,TGI,UACC-62 melanoma,95.9 µM
same,GI50,SF-539 CNS,17.1 µM
same,TGI,SF-539 CNS,31.9 µM
same,GI50,MDA-MB-231 breast,7.95 µM
same,TGI,MDA-MB-231 breast,29.8 µM
same,GI50,HOP-62 NSCLC,38.3 µM
same,TGI,HOP-62 NSCLC,> 100 µM
same,GI50,MDA-MB-435,21.2 µM
same,TGI,MDA-MB-435,68 µM
same,GI50,UACC-257 melanoma,20.7 µM
same,TGI,UACC-257 melanoma,56.3 µM
same,GI50,OVCAR-3 ovarian,14.6 µM
same,TGI,OVCAR-3 ovarian,38.8 µM
O=c1[nH]c2ccc(C(F)(F)F)cc2nc1Cc1ccccc1,TGI,SW-620 colon,> 100 µM
same,TGI,PC-3 prostate,81.3 µM
same,TGI,NCI/ADR-RES ovarian,71.2 µM
same,TGI,OVCAR-4 ovarian,> 100 µM
same,TGI,NCI-H226 lung,50.7 µM
same,TGI,NCI-H23 lung,46.5 µM
same,TGI,SNB-19 CNS,> 100 µM
same,TGI,SK-OV-3 ovarian,> 100 µM
same,TGI,OVCAR-8 ovarian,> 100 µM
same,TGI,SF-268 CNS,> 100 µM
same,TGI,K-562 leukemia,> 100 µM
same,TGI,SK-MEL-28 melanoma,> 100 µM
same,TGI,CCRF-CEM leukemia,> 100 µM
same,TGI,HCC-2998 colon,82.6 µM
same,TGI,NCI-H460 lung,> 100 µM
same,TGI,MOLT-4 leukemia,46 µM
same,TGI,TK-10 renal,> 100 µM
same,TGI,M14 melanoma,97.1 µM
same,TGI,COLO 205 colon,40.7 µM
same,TGI,LOX IMVI melanoma,> 100 µM
same,TGI,T-47D breast,> 100 µM
same,TGI,RPMI-8226 leukemia,87.6 µM
same,TGI,ACHN renal,88.4 µM
same,TGI,MCF7 breast,> 100 µM
same,TGI,SK-MEL-2 melanoma,62.6 µM
same,TGI,BT-549 breast,69.4 µM
same,TGI,CAKI-1 renal,> 100 µM
same,TGI,HCT-116 colon,> 100 µM
same,TGI,KM12 colon,> 100 µM
same,TGI,A498 renal,66.9 µM
same,TGI,SNB-75 CNS,> 100 µM
same,TGI,DU-145 prostate,> 100 µM
same,TGI,U251 CNS,> 100 µM
same,TGI,SF-295 CNS,> 100 µM
same,TGI,RXF 393 renal,61.6 µM
same,TGI,EKVX NSCLC,> 100 µM
same,TGI,HCT-15 colon,> 100 µM
same,TGI,HL-60(TB) leukemia,> 100 µM
same,TGI,786-0 renal,> 100 µM
same,TGI,SK-MEL-5 melanoma,60.2 µM
same,TGI,SR leukemia,> 100 µM
same,TGI,UO-31 renal,> 100 µM
same,TGI,HOP-92 NSCLC,50.4 µM
same,TGI,HS 578T breast,71.3 µM
same,TGI,IGROV1 ovarian,> 100 µM
same,TGI,HT29 colon,68.7 µM
same,TGI,UACC-62 melanoma,> 100 µM
same,TGI,SF-539 CNS,> 100 µM
same,TGI,MDA-MB-231 breast,> 100 µM
same,TGI,HOP-62 NSCLC,> 100 µM
same,TGI,MDA-MB-435,> 100 µM
same,TGI,UACC-257 melanoma,> 100 µM
NC(=O)c1c2c(n3ccccc13)C(=O)c1ccccc1C2=O,TGI,SW-620 colon,> 100 µM
same,TGI,PC-3 prostate,> 100 µM
same,TGI,NCI/ADR-RES ovarian,> 100 µM
same,TGI,OVCAR-4 ovarian,> 100 µM
same,TGI,NCI-H226 lung,> 100 µM
same,TGI,NCI-H23 lung,36.4 µM
same,TGI,SNB-19 CNS,> 100 µM
same,TGI,SK-OV-3 ovarian,> 100 µM
same,TGI,OVCAR-8 ovarian,> 100 µM
same,TGI,SF-268 CNS,> 100 µM
same,TGI,K-562 leukemia,> 100 µM
same,TGI,SK-MEL-28 melanoma,> 100 µM
same,TGI,CCRF-CEM leukemia,> 100 µM
same,TGI,HCC-2998 colon,> 100 µM
same,TGI,NCI-H460 lung,82.5 µM
same,TGI,MOLT-4 leukemia,> 100 µM
same,TGI,TK-10 renal,> 100 µM
same,TGI,M14 melanoma,> 100 µM
same,TGI,COLO 205 colon,> 100 µM
same,TGI,LOX IMVI melanoma,> 100 µM
same,TGI,T-47D breast,> 100 µM
same,TGI,RPMI-8226 leukemia,> 100 µM
same,TGI,ACHN renal,> 100 µM
same,TGI,MCF7 breast,> 100 µM
same,TGI,SK-MEL-2 melanoma,> 100 µM
same,TGI,BT-549 breast,> 100 µM
same,TGI,CAKI-1 renal,> 100 µM
same,TGI,HCT-116 colon,> 100 µM
same,TGI,KM12 colon,> 100 µM
same,TGI,A498 renal,> 100 µM
same,TGI,SNB-75 CNS,> 100 µM
same,TGI,DU-145 prostate,> 100 µM
same,TGI,U251 CNS,> 100 µM
same,TGI,SF-295 CNS,> 100 µM
same,TGI,RXF 393 renal,> 100 µM
same,TGI,EKVX NSCLC,> 100 µM
same,TGI,HCT-15 colon,> 100 µM
same,TGI,HL-60(TB) leukemia,> 100 µM
same,TGI,786-0 renal,> 100 µM
same,TGI,SK-MEL-5 melanoma,37 µM
same,TGI,SR leukemia,> 100 µM
same,TGI,UO-31 renal,> 100 µM
same,TGI,HOP-92 NSCLC,> 100 µM
same,TGI,HS 578T breast,> 100 µM
same,TGI,IGROV1 ovarian,> 100 µM
same,TGI,HT29 colon,> 100 µM
same,TGI,UACC-62 melanoma,> 100 µM
same,TGI,SF-539 CNS,> 100 µM
same,TGI,MDA-MB-231 breast,93 µM
same,TGI,HOP-62 NSCLC,> 100 µM
same,TGI,MDA-MB-435,44 µM
same,TGI,UACC-257 melanoma,> 100 µM
